Peptide text beside a SMILES is read from it.
Tests used:
[1] = tested on: THP1-Dual monocyte reporter cell line; assay: THP1-Dual myeloid cell differentiation assay (PMA protocol); type: cell-based, human; conditions: PMA 24 h, then peptide 0.33 uM or 0.66 uM 24 h
Procedure, shortened: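 THP1-Dual monocytes were primed for 24 h with 100 ng/ml PMA, then given peptide (0.33 uM or 0.66 uM) for a further 24 h at 37 degrees C. CCL22 was measured in the supernatants. Adherent cells were stained for surface markers such as CD169, Clec9a or Clec12a with labeled anti-human antibodies.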

[2] = Plate binding of FITC-labelled hyaluronic acid to immobilised biotinylated peptides; conditions: 400 ng peptide/well, 1 ug FITC-HMW-HA, PBS; normalized to immX3 peptide binding = 100
Description: Effects of pH, PIP2 and size classes: Streptavidin-coated 96-well plates (G-Biosciences, St. Louis, MO) were pre-loaded with biotinylated peptides [see Example 1] at 400 ng/well, at room temperature for 60 minutes. The plate was washed with PBS buffer and then 1 ug FITC-labelled heparin or hyaluronic acid (FITC-HMW-HA) in 100 uL PBS buffer was added per well (all tests done in quadruplicate). Incubation proceeded for 90 minutes at room temperature, followed by two PBS washes. The plate was read in a standard laboratory fluorometer (488/525 nm exitation/[…]) and the counts normalized for immX3 peptide binding=100. Values statistically above background are shown in bold font. **p<0.05 versus immX3AVD.

[3] = tested on: Primary human T-cells pre-selected for recognizing GAD65 peptide antigen; assay: GAD65-specific primary T-cell differentiation on peptide-treated THP1-Dual cells; type: cell-based; conditions: peptide 0.66 uM, GAD65 1 ug/ml
Description: Mammalian cell differentiation assays employed the THP1-Dual monocyte reporter cell line (Invivogen Inc, San Diego, CA) seeded at 2×10e5 cells per well in 96-well plates and cultured at 37 degrees C. in RPMI-1640 growth medium plus 10% fetal bovine serum and 1% penicillin/streptomycin. Cells were subsequently treated for 24 hours with 100 ng/ml Phorbol 12-myristate 13-acetate (PMA protocol; Cayman Chemical Company, Ann Arbor, MI). Peptide (0.33 uM or 0.66 uM, as indicated) was then added, and incubation continued for an additional 24 hours. Culture supernatants were assayed for CCL22. Plates with adherent cells were washed with PBS and assayed for immunoreactivity of surface markers such as CD169, Clec9a or Clec12a using fuorescent tag- or biotin-labeled anti-human antibodies purchased from Miltenyi Biotec (Auburn, CA) and the secondary detection reagent recommended by the manufacturer.
Another non-myeloid lineage was also tested. Primary human T-cells pre-selected for recognizing GAD65 peptide antigen, and the peptide antigen itself were purchased from Cellero LLC (Memphis, TN). THP1-Dual cells were treated with both GAD65 peptide antigen (1 ug/ml) and immodulin peptide (0.66 uM) using the protocol described in Example 2. After completion of the myeloid cell differentiation step (24 hours), supernatants were collected and 100,000 primary T-cells were added to each well in RPMI-1640 medium (100 uL per well). Plates were incubated for an additional 96 hours and cell extracts were prepared using CellLytic-M reagent (Sigma Chemical Co., St Louis, MO). Supernatants were assayed for CCL22, IL-10 and TGFbeta, and cell extracts assayed for FoxP3, all by ELISA using reagents from R&D Systems, Minneapolis, MN. The results are shown in the table below (**p<0.05 vs immX3AVD, set to=100): […]

SMILES: CC(C)[C@H](NC(=O)[C@H](C)NC(=O)[C@H](Cc1c[nH]c2ccccc12)NC(=O)[C@H](CS)NC(=O)[C@H](Cc1ccccc1)NC(=O)CNC(=O)[C@H](CCCNC(=N)N)NC(=O)[C@H](CCCCN)NC(=O)[C@H](CCCNC(=N)N)NC(=O)CNC(=O)[C@H](CCCCN)NC(=O)[C@H](CO)NC(=O)[C@@H]1CCCN1C(=O)[C@H](CCCNC(=N)N)NC(=O)[C@H](CS)NC(=O)[C@H](CCC(N)=O)NC(=O)[C@H](CCCCN)NC(=O)[C@H](CCCCN)NC(=O)[C@H](CCCCN)NC(=O)[C@H](Cc1ccc(O)cc1)NC(=O)[C@H](Cc1ccccc1)NC(=O)CNC(=O)[C@H](CCCCN)NC(=O)[C@@H](N)CCCCN)C(=O)N[C@@H](CC(=O)O)C(=O)O [immX3AVD] (H-KKGFYKKKQCRPSKGRKRGFCWAVD-OH)
- CD169+ (AU) ([1]; relative to immX3AVD = 100): 100 AU
- Clec12A(AU) ([1]; relative to immX3AVD = 100): 100 AU
- CCL22 ([1]; culture supernatant): 282.4 ± 18.4 pg/mL
- Hyaluronate binding (fluorescence counts) [2]: 100.0 ± 22.8
- FoxP3 (AU) ([3]; cell extracts, immX3AVD = 100): 100.0 ± 20.5 AU
- CCL22 ([3]; supernatant): 88.8 ± 13.6 pg/mL
- IL-10 ([3]; supernatant): 1331 ± 94.3 pg/mL
- TGFb ([3]; supernatant): 131.4 ± 41.4 pg/mL

— US20240034761A1, “REGENERATION OF MAMMALIAN TISSUES USING SYNTHETIC IMMODULINS” (priority 2022, published 2024)
